# Reference: patent publication US20240122932A1, “Methods of Treating B-Cell Malignancy Using Bcl-2 Inhibitor” (BeiGene Switzerland GmbH, priority 2021, published 2024)
# Test system: JeKo-1 human mantle cell lymphoma (MCL) subcutaneous xenograft
# Assay: JeKo-1 human MCL subcutaneous xenograft model, Bcl-2 inhibitor with BTK inhibitor
# Type: in vivo, NCG mice
# Settings: 20 mpk p.o. BID
# Procedure: JeKo-1 cells were maintained as suspension cell cultures at 37° C. in a 5% CO2 atmosphere. Five to six-week-old female NCG mice were purchased from Gempharmatech of Information Technology Center. All animals were maintained under specific pathogen free (SPF) “full barrier” condition with free access to food and water. […] Mice were fed with complete granulated feed with Co60 radiosterilization (Beijing Ke Ao Xie Li Feed Co., Ltd.). All experiments were carried out in accordance with BeiGene's IACUC.
# Re-suspended cells were placed on ice prior to inoculation. […] Each animal was injected subcutaneously with 1×10^7 cells in 200 μL of cell suspension in the right front flank via a 26-gauge needle. After implantation, primary tumor volume was measured in two dimensions using a caliper.
# Transplanted animals were randomized into 8 groups with 10 mice per group on day 0 according to transplantation sequence and body weight. […] Treatments were administered by oral gavage (p.o.) in a volume of 10 mL/kg body weight. Body weight was assessed immediately before dosing and volume dosed was adjusted accordingly.
# Individual body weight was recorded twice weekly, with mice being monitored daily for clinical signs of toxicity for the duration of the study. Mice were euthanized using carbon dioxide when their tumor volume reached 2,000 mm^3, the tumor was ulcerated, or body weight loss exceeded 20%.
# Tumor volume (TV) was calculated using the formula: TV=0.5×(a×b^2) where a and b are the long and short diameters of the tumor, respectively. […] (treated t=treated tumor volume at time t, vehicle t=vehicle tumor volume at time t)
structure (smiles),measurement,setting,value
"C=CC(=O)N1CCC([C@@H]2CCNc3c(C(N)=O)c(-c4ccc(Oc5ccccc5)cc4)nn32)CC1 [Compound B, (S)-7-(1-acryloylpiperidin-4-yl)-2-(4-phenoxyphenyl)-4,5,6,7-tetra-hydropyrazolo[1,5-a]pyrimidine-3-carboxamide, reference compound]",Mean TV (D 21) (mm^3 ± SEM),,799.8 ± 73.2 mm^3
same,TGI (%),"day 21, 20 mg/kg",56%
